{"source": "patent US7423015B1", "about": "“Antihelminthic drugs as a treatment for hyperproliferative diseases” (Board of Regents, The University of Texas System, priority 2001, dated 2008)", "key": {"p53 protein [1]": {"test_system": "p53 protein", "test": "p53 induction, immunoblot analysis of nuclear extracts", "type": "cell-based, human", "design": "p53 Induction: dose or concentration left out as unconfirmed"}, "H460 cells": {"test_system": "H460 cells", "test": "Induction of apoptosis in H460 (Hoechst 33342, TUNEL, TdT FACS)", "type": "cell-based, human", "experimental": "Cells were seeded onto chamber slides and treated with various reagents, after which cell monolayers were washed twice with ice-cold PBS (pH 7.4). Thereafter, cells were fixed for 5 min at 20° C. in 10% formalin. The washing step with PBS was then repeated once. To stain the nuclei, the cells were incubated for 10 min with 10 μg/ml of Hoechst 33342 and then washed with PBS. The coverslips with the stained cells were mounted in 80% glycerol in PBS containing 1 mg/ml P-phenylenediamine and examined with a Nikon epifluorescence microscope.\nApoptotic assay was done using M30 CytoDEATH apoptotic cell death assay kit (Boehringer Mannnheim). Cells were grown on chamber slides, control and benzimidazole treated cells were stained with Mouse monoclonal antibody (clone M30) as per manufacturer's instructions. […] Flow cytometry was carried out in a fluorescence-activated cell sorter (Epics Elite; Coulter, Inc., Hialeah, Fla.).\nThe inventors tested the effect of BZ treatment on the human NSCLC cell line H460. […] Chromatin condensation was noted under a fluorescence microscope at 24 h after treatment, by staining the nuclei with Hoechst 33342 fluorescent dye. […] Gross morphological changes associated with a loss of viability were observed by 24 hr post-treatment, whereas signs of apoptosis, detected by DNA staining and TUNEL assays, became apparent by 24 hr after drug treatment."}, "p53 protein [2]": {"test_system": "p53 protein", "test": "p53 protein stability, pulse-chase with cycloheximide in H460", "type": "cell-based, human", "protocol": "Cells were treated with 0.05 μg/ml fenbendazole or mebendazole for 24 h. After this, control (mock-treated) and drug-treated H460 cells were incubated with 10 μg/ml cycloheximide in drug-free medium for different times and then processed to obtain total cell extracts. Finally, samples were denatured by boiling them in SDS-loading buffer (100 mM Tris, pH 6.8; 2% SDS; 0.1% bromphenol blue; 10% glycerol; 25 μM β-mercaptoethanol) and loaded onto a 10% SDS-polyacrylamide gel. Blots were probed with anti-p53 monoclonal antibody B p53-12 (Santa Cruz Biotechnology, Inc.) and anti-actin monoclonal antibody (Amersham). The immunocomplexes were detected using the Enhanced Chemiluminescence kit according to the manufacturer's directions as described above. The intensities of the bands were quantitated with a PhosphoImager using ImageQuant™ Software (Molecular Dynamics, Sunnyvale, Calif.).\nH460 cells were treated with 0.05 μg/ml FZ for 24 hr, and then both untreated control and treated cells were washed with PBS and treated with 24 μg/ml cyclohexamide. After that, cells were harvested at different times. The total cell protein was extracted and analyzed on a 10% polyacrylamide-gel, followed by Western blot analysis using p53 and actin monoclonal antibodies. […]\nData from the pulse-chase experiments were quantitated with a PhosphoImager using ImageQuant™ software. […]"}, "H460 NSCLC cells": {"test_system": "H460 NSCLC cells", "test": "Cell cycle profiles by FACS, MZ and vinorelbine", "type": "cell-based, human", "experimental": "FIG. 10. MZ Enhances activity of anti-mictotic drugs in H460 NSCLC cells. H460 cells were treated with low dose of MZ or Vinorelbine. Cell cycle profiles indicating G1/S G2-Mphases were analyzed by FACS.\nThe doses of MZ and vinorelbine were chosen to be “sub-therapeutic”. […] Thus, in H460 NSCLC cells mebendazole enhances the activity of anti-mitotic drugs."}, "topoisomerase I": {"target": "topoisomerase I (Homo sapiens, UniProt P11387)", "sequence (P11387 whole entry)": "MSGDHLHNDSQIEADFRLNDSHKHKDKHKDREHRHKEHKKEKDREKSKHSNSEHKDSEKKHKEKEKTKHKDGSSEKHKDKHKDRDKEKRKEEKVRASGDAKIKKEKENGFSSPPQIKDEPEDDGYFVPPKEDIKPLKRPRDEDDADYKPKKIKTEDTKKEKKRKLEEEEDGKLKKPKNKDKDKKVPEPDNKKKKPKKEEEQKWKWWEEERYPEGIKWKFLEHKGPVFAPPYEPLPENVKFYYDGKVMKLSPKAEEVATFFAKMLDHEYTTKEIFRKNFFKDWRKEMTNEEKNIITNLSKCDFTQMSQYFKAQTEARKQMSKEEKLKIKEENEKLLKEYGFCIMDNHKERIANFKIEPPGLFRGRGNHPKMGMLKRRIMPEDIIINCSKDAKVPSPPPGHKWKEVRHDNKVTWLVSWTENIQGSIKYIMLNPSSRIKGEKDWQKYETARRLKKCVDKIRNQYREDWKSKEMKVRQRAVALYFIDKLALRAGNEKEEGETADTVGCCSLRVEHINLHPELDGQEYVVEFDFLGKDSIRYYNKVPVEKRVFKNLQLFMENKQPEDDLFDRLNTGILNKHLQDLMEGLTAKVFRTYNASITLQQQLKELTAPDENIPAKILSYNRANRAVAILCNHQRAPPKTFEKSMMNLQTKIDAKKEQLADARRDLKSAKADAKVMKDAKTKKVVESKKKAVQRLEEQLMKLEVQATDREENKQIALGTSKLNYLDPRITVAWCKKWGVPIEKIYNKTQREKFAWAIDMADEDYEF", "test": "Test for topoisomerase I poison effect", "type": "biochemical", "excerpt": "It has been shown recently that BZ are substrates for the P-glycoprotein transporter in multidrug-resistant tumor cells (Nare et al. 1994). It may be speculated that P-glycoprotein, which is overexpressed in several normal tissues and organs, could mediate the transport of BZ. Some terbenzimidazole compounds have been reported to be topoisomerase I poisons (Pilch et al., 1996)."}, "[3]": {"test_system": "Ad-luciferase transgene expression", "test": "Ad-luciferase transgene expression with or without MZ", "type": "cell-based", "conditions": "six cell lines, MZ at 50 ng/ml, 48 hours", "experimental": "FIG. 8. Expression of Ad-luciferase in H1299 cells with and without MZ. H1299 cells were treated with media (UT) or Ad-luciferase at increasing multiplicities of infection, with or without MZ at 50 ng/ml. Forty-eight hours later, cells were harvested and luciferase activity assayed.\nFIG. 9. Expression of Ad-luciferase in A549 cells with and without MZ. A549 cells were plated in 6-well dishes and either treated with media (UT) or Ad-luciferase at increasing multiplicities of infection, with or without MZ at 50 ng/ml. Forty-eight hours later, cells were harvested and luciferase activity assayed.\nNext, a series of six cell lines were transfected with Ad-luciferase at increasing multiplicities of infection, with or without MZ at 50 ng/ml."}, "[4]": {"test_system": "A549 metastatic lung colonies", "test": "Lung metastases in vivo after tail vein injection", "design": "species or system female nude mice", "experimental": "To establish lung metastases, female nude mice were injected intravenously via tail vein with 10^6 A549 tumor cells suspended in […] of sterile PBS. Six days later, mice were divided into two groups of 5 mice each and treated. Group 1 received no treatment and group 2 received the experimental MZ drug orally at 1 mg of drug (100 μl) twice a week for 3 weeks. After 3 weeks, animals were euthanized by CO2 inhalation. Lungs from each of the mice from the two groups were injected intra-tracheally with India ink and fixed in Feketes solution. The therapeutic effect of MZ treatment was determined by counting the number of metastatic tumors in each lung under a dissecting microscope without knowledge of the treatment groups. The experiments were performed three times and data analyzed and interpreted as statistically significant if the p value was <0.05 by the Mann-Whitney rank-sum test.\nNext, the inventors asked whether treatment with MZ would inhibit the growth of human metastatic lung cancer cells in vivo. About 300 metastatic colonies appeared on untreated mice 21 days after A549 cell injection into the tail vein (FIG. 6). This technique was reproducible as the totals blindly counted by two investigators differed by less than 10%. This experiment was performed three times with similar results. The oral administration of […] MZ reduced mean colony count to 80% of the mean value for controls (P<0.0001)."}}}
{"smiles": "COC(=O)Nc1nc2ccc(Sc3ccccc3)cc2[nH]1", "note": "[Fenbendazole, methy 5-(phenylthio)-2-benzimidazole-2-carbamate]", "values": [{"measurement": "p53 Induction", "setting": "p53 protein [1]; H226Br", "result": "No"}, {"measurement": "p53 Induction", "setting": "p53 protein [1]; H322", "result": "No"}, {"measurement": "p53 Induction", "setting": "p53 protein [1]; H358", "result": "No"}, {"measurement": "concentration at which induction of p53 became detectable", "setting": "p53 protein [1]; H460", "result": 0.01, "unit": "µg/mL"}, {"measurement": "p53 Induction", "setting": "p53 protein [1]; H460", "result": "Yes"}, {"measurement": "p53 Induction", "setting": "p53 protein [1]; H549", "result": "Yes"}, {"measurement": "p53 Induction", "setting": "p53 protein [1]; H596", "result": "No"}, {"measurement": "p53 Induction", "setting": "p53 protein [1]; H1299", "result": "No"}, {"measurement": "p53 Induction", "setting": "p53 protein [1]; HeLa", "result": "No"}, {"measurement": "induction of p53 production", "setting": "p53 protein [1]; HeLa (HPV-18) and SiHa (HPV-16) cells, 48 h, total cell proteins", "result": "no induction"}, {"measurement": "p53 Induction", "setting": "p53 protein [1]; Hep 3B", "result": "No"}, {"measurement": "p53 Induction", "setting": "p53 protein [1]; MCF-7", "result": "Yes"}, {"measurement": "p53 Induction", "setting": "p53 protein [1]; MDA 231", "result": "No"}, {"measurement": "p53 Induction", "setting": "p53 protein [1]; RD", "result": "No"}, {"measurement": "p53 Induction", "setting": "p53 protein [1]; SK-OV-433", "result": "Yes"}, {"measurement": "p53 Induction", "setting": "p53 protein [1]; SW480", "result": "No"}, {"measurement": "p53 Induction", "setting": "p53 protein [1]; Saos-2", "result": "No"}, {"measurement": "p53 Induction", "setting": "p53 protein [1]; SiHa", "result": "No"}, {"measurement": "apoptotic effect on H460 cells", "setting": "H460 cells", "result": "apoptotic effect"}, {"measurement": "effect on half-life of the p53 protein", "setting": "p53 protein [2]", "result": "prolong the half-life"}]}
{"smiles": "COC(=O)Nc1nc2ccc(C(=O)c3ccccc3)cc2[nH]1", "note": "[Mebendazole, Methyl 5-benzoylbenzimidazole-2-carbamate]", "values": [{"measurement": "apoptosis (sub-G0 cells) under combination of MZ and vinorelbine", "setting": "H460 NSCLC cells; 24-48 hr cultures", "result": "pronounced apoptosis"}, {"measurement": "interaction of MZ combined with Vinorelbine", "setting": "H460 NSCLC cells; low doses of both drugs", "result": "synergistic interaction"}, {"measurement": "apoptosis under monotherapy", "setting": "H460 NSCLC cells; sub-therapeutic low dose", "result": "No apoptosis"}, {"measurement": "p53 Induction", "setting": "p53 protein [1]; H226Br", "result": "No"}, {"measurement": "p53 Induction", "setting": "p53 protein [1]; H322", "result": "No"}, {"measurement": "p53 Induction", "setting": "p53 protein [1]; H358", "result": "No"}, {"measurement": "p53 Induction", "setting": "p53 protein [1]; H460", "result": "Yes"}, {"measurement": "p53 Induction", "setting": "p53 protein [1]; H549", "result": "Yes"}, {"measurement": "p53 Induction", "setting": "p53 protein [1]; H596", "result": "No"}, {"measurement": "p53 Induction", "setting": "p53 protein [1]; H1299", "result": "No"}, {"measurement": "p53 Induction", "setting": "p53 protein [1]; HeLa", "result": "No"}, {"measurement": "p53 Induction", "setting": "p53 protein [1]; Hep 3B", "result": "No"}, {"measurement": "p53 Induction", "setting": "p53 protein [1]; MCF-7", "result": "Yes"}, {"measurement": "p53 Induction", "setting": "p53 protein [1]; MDA 231", "result": "No"}, {"measurement": "p53 Induction", "setting": "p53 protein [1]; RD", "result": "No"}, {"measurement": "p53 Induction", "setting": "p53 protein [1]; SK-OV-433", "result": "Yes"}, {"measurement": "p53 Induction", "setting": "p53 protein [1]; SW480", "result": "No"}, {"measurement": "p53 Induction", "setting": "p53 protein [1]; Saos-2", "result": "No"}, {"measurement": "p53 Induction", "setting": "p53 protein [1]; SiHa", "result": "No"}, {"measurement": "topoisomerase I poison effect", "setting": "topoisomerase I", "result": "could not detect any"}, {"measurement": "transgene expression", "setting": "[3]", "result": "significant increases"}, {"measurement": "apoptotic effect on H460 cells", "setting": "H460 cells", "result": "apoptotic effect"}, {"measurement": "effect on half-life of the p53 protein", "setting": "p53 protein [2]", "result": "prolong the half-life"}, {"measurement": "size of tumor colonies (transverse diameter)", "setting": "[4]; H and E staining of lung tissues", "result": "significantly reduced"}, {"measurement": "mean colony count, % of the mean value for controls", "setting": "[4]; oral administration of 1 mg/ml MZ, 21 days after A549 injection, P<0.0001", "result": 80, "unit": "%"}]}
